These are literature values, as cited in patent US10137126B2, “Method of preparing very slightly soluble drug with solid dosage form” (YUNG SHIN PHARM. IND. CO., LTD., priority 2015, dated 2018).

On to `CN1CC(=O)N2[C@H](c3ccc4c(c3)OCO4)c3[nH]c4ccccc4c3C[C@@H]2C1=O` [Tadalafil], for which the aqueous solubility is recorded as 2 g/1,000,000 ml.
As to `C[C@@H](c1ncncc1F)[C@](O)(Cn1cncn1)c1ccc(F)cc1F` [Voriconazole], the aqueous solubility is 1 g/10,000 ml.
Turning to `CCC(C)n1ncn(-c2ccc(N3CCN(c4ccc(OCC5COC(Cn6cncn6)(c6ccc(Cl)cc6Cl)O5)cc4)CC3)cc2)c1=O` (stereo not drawn) [Itraconazole], the aqueous solubility is 1 g/1,000 ml.
